Each block holds one compound with its values, some of them ahead of it.
Legend:
[1] = target: respiratory chain complex II + III (Saccharomyces cerevisiae, UniProt P00163+P07143+P08067); experiment: Respiratory chain enzymatic activity, complexes II plus III, S. cerevisiae; format: biochemical; details: S. cerevisiae; 10 mM malonic acid, 10 μg/ml antimycin A; read-out: Inhibition (%) of positive control, Complex II+III
[2] = target: T1, respiratory chain complex II + III (Candida albicans, UniProt A0A1D8PHA3+A0A1D8PJX3+P0C8L0); experiment: Respiratory chain enzymatic activity, complexes II plus III, C. albicans; format: biochemical; details: C. albicans; 10 mM malonic acid, 10 μg/ml antimycin A; read-out: Inhibition (%) of positive control, Complex II+III
T1 sequence (P0C8L0 1-387): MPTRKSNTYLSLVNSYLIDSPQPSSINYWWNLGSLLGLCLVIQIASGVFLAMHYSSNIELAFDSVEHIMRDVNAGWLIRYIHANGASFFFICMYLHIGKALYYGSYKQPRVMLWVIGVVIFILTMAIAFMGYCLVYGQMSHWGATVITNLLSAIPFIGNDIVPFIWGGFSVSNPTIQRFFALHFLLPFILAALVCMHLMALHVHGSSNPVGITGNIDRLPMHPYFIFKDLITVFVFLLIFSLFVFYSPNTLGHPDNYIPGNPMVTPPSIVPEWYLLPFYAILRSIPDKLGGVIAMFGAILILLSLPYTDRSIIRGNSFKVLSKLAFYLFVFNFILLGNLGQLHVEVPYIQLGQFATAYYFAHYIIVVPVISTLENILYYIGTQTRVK
T1 sequence (A0A1D8PHA3 43-288): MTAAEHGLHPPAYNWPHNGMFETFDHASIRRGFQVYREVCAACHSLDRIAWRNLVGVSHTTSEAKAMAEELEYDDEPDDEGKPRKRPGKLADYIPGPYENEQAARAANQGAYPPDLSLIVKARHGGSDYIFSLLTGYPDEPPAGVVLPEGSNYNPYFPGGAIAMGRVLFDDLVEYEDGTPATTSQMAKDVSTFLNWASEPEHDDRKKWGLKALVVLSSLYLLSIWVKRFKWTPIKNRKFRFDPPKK
T1 sequence (A0A1D8PJX3 30-213): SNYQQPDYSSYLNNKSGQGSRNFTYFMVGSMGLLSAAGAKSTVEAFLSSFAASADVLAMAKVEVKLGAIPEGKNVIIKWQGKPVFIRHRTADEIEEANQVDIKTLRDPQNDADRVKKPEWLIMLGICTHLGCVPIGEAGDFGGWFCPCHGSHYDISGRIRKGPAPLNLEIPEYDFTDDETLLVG

[3] = target: respiratory chain complex II (Candida albicans, UniProt Q59QN7+Q5A1E8+Q5AJZ8+Q5ALU6); experiment: Respiratory chain enzymatic activity, complex II, C. albicans; format: biochemical; details: 10 mM malonic acid, read-out: Inhibition (%) of positive control, Complex II
[4] = target: respiratory chain complex II (Saccharomyces cerevisiae, UniProt P21801+P33421+P37298+Q00711); experiment: Respiratory chain enzymatic activity, complex II, S. cerevisiae; format: biochemical; details: S. cerevisiae; 10 mM malonic acid; read-out: Inhibition (%) of positive control, Complex II
complex III = details: cited from earlier work
[5] = target: respiratory chain complex II + III (Bos taurus, UniProt P00125+P00157+P13272); experiment: MitoCheck complex II/III activity assay, bovine heart mitochondria; format: biochemical; details: bovine heart; 1 mM TTFA, 5 μg/ml antimycin A; read-out: Inhibition (%) of positive control, Complex II+III
whole yeast cells = experiment: Oxygen consumption of whole yeast cells (oxygen electrode); format: cell-based, Saccharomyces cerevisiae; details: T-2307 30, 100, 300, 1,000 μM; antimycin A 10 μg/ml; CCCP 4 μM; 23°C; 3 × 10^7 cells/ml
[6] = tested on: isolated yeast mitochondria; experiment: Mitochondrial oxygen consumption (MitoXpress probe); format: biochemical, Saccharomyces cerevisiae
Experimental: S. cerevisiae from frozen stock (−80°C) was inoculated into yeast extract-peptone-glucose (YPD) medium (1% yeast extract, 2% peptone, and 2% glucose) and grown for 24 h at 30°C. The cultured cells were subcultured into yeast extract-peptone-galactose (YPGal) medium (1% yeast extract, 2% peptone, 2% galactose, and 0.1% glucose) and incubated overnight with continuous shaking at 30°C. When the optical density at 600 nm reached approximately 1.0, the cells were collected by centrifugation (3,000 × g at room temperature for 5 min). Intact mitochondria were isolated as per a previously described protocol ([35]) with minor modifications as follows. Yeast cells were converted to spheroplasts by incubation with Zymolyase-20T (Nacalai Tesque, Inc., Kyoto, Japan) (4 mg of Zymolyase-20T/g [wet weight] of cells) and disrupted using a Dounce homogenizer. The crude mitochondrial fraction was isolated by differential centrifugation ([35]). […]. The mitochondrial protein concentration was determined using the DC protein assay (Bio-Rad Laboratories, Inc., Hercules, CA, USA) following the manufacturer’s instructions. The mitochondrial stock solution was maintained on ice during the oxygen consumption experiment.
The mitochondrial oxygen consumption was measured using a phosphorescent oxygen-sensitive probe, MitoXpress-Xtra (Agilent Technologies, Santa Clara, CA, USA), as described previously ([16], [36]). Succinate was used as a respiratory substrate in this assay. […] A microplate reader, PHERAstar Plus (BMG Labtech GmbH, Ortenberg, Germany), was used to read. The time-resolved fluorescence protocol was set to read the plate at 1.5-min intervals for 60 min at an excitation wavelength of 337 nm, an emission wavelength of 665 nm, a delay time of 40 μs, and a gate time of 100 μs at 30°C.
[…]. […] For quantitative assessment, OCR was determined from the slope of the initial 7.5 min. OCR is expressed as micromolar of O2 per minute per milligram of protein.
The drug concentration was expressed as micromoles per milligram of protein. […]

[7] = target: respiratory chain complex I (Bos taurus, UniProt P03887+P17694+P42026); experiment: MitoCheck complex I activity assay, bovine heart mitochondria; format: biochemical; details: bovine heart; 2 μM rotenone; read-out: Inhibition (%) of positive control, complex I
Experimental: The enzymatic activities of bovine heart mitochondrial respiratory chain complexes were determined using MitoCheck complex I, complex II/III, and complex IV activity assay kits (Cayman Chemical, Ann Arbor, MI, USA). Bovine heart mitochondria from these kits were used for experiments. The experiments were performed following the manufacturer’s instructions. In the experiments, 2 μM rotenone, 1 mM KCN, and both 1 mM TTFA and 5 μg/ml antimycin A served as positive controls for the inhibition of complex I, complex IV, and complexes II plus III, respectively.
In all experiments, the reaction rate of each enzyme was determined by calculating the slope of the linear portion of the curve. Complex I activity in C. albicans was calculated by subtracting the rotenone-insensitive enzymatic activity (with 10 μM rotenone) from the NADH dehydrogenase activity (without rotenone).
OCRs in isolated mitochondria and intracellular ATP levels were compared between the control and treatment groups using the parametric Dunnett’s multiple-comparison test. P values of <0.05 (comparison of multiple groups) were considered statistically significant. IC50 values were determined from dose-response curves compared with untreated control samples using a four-parameter logistic curve-fitting analysis. Data were analyzed using JMP 13.0 (SAS Institute Japan Ltd., Tokyo, Japan).

NADH dehydrogenase = NADH dehydrogenase activity, C. albicans; format: biochemical, Candida albicans; details: C. albicans; 10 μM rotenone
Saccharomyces cerevisiae = experiment: Intracellular ATP levels in yeast (luminescence assay); format: cell-based; details: 8 h exposure at 30°C, semisynthetic medium; antimycin A 0.5 μg/ml
Experimental: Intracellular ATP levels were measured using a previously described method with the following modifications ([25]). S. cerevisiae was grown overnight in a semisynthetic medium (per liter: 20 g of lactate, 0.5 g of glucose, 3 g of yeast extract, 1 g of KH2PO4, 1 g of NH4Cl, 0.5 g of CaCl2·2H2O, 0.5 g of NaCl, and 0.6 g of MgCl2·6H2O; adjusted to pH 5.5 with NaOH). The cells were harvested during the logarithmic-growth phase by centrifugation (3,000 × g at room temperature for 5 min). They were then washed and resuspended in distilled water. The suspension was diluted in a semisynthetic medium to yield 1 × 10^6 cells/ml. After 5 min of incubation at 30°C, T-2307 and antimycin A were added to the suspension. Further, the cells were incubated for 8 h at 30°C. Subsequently, the cells were collected by centrifugation (4,200 × g at 4°C for 5 min). After washes performed with phosphate-buffered saline (PBS; pH 7.2), the cells were resuspended in PBS and diluted to yield 1 × 10^6 cells/ml. ATP levels were measured using the BacTiter-Glo microbial cell viability assay (Promega, Madison, WI, USA), following the manufacturer’s instructions. Luminescence was measured using a microplate reader POLARstar Optima (BMG Labtech GmbH). To determine the viable cell counts, the cell suspension was diluted with PBS and spread on YPD agar. After a 2-day incubation at 30°C, colonies were counted. The intracellular ATP level is expressed as relative light units (RLU)/CFU.

Chain of respiratory chain complex II (Candida albicans, UniProt Q59QN7+Q5A1E8+Q5AJZ8+Q5ALU6) (Q5A1E8 26-641): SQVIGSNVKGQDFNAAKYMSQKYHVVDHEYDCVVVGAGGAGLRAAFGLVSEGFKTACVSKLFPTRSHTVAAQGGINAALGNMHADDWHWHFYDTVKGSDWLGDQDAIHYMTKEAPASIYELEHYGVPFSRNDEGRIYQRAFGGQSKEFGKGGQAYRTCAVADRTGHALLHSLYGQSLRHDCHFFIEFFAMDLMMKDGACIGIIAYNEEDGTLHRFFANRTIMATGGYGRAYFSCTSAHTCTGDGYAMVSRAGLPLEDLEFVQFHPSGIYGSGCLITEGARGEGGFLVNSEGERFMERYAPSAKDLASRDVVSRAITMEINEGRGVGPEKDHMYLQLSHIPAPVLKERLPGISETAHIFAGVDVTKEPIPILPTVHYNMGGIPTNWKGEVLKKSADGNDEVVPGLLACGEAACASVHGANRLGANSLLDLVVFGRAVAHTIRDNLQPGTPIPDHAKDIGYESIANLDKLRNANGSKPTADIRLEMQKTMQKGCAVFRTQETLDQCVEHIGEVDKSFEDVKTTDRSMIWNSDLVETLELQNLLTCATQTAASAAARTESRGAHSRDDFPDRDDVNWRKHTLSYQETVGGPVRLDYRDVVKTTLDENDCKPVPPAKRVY
Chain of respiratory chain complex II (Candida albicans, UniProt Q59QN7+Q5A1E8+Q5AJZ8+Q5ALU6) (Q59QN7 20-263): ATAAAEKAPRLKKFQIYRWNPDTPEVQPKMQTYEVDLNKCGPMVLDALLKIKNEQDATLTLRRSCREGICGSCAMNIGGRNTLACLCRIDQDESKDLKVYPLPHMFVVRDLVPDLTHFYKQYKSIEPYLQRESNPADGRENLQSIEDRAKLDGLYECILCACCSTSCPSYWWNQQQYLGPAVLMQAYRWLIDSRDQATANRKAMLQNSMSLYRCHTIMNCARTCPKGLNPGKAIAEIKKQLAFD
Chain of respiratory chain complex II (Candida albicans, UniProt Q59QN7+Q5A1E8+Q5AJZ8+Q5ALU6) (Q5ALU6 32-176): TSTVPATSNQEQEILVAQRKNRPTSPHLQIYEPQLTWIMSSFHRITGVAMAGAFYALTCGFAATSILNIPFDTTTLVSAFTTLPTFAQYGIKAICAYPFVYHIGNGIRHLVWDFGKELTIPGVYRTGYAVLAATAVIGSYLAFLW
Chain of respiratory chain complex II (Candida albicans, UniProt Q59QN7+Q5A1E8+Q5AJZ8+Q5ALU6) (Q5AJZ8 28-164): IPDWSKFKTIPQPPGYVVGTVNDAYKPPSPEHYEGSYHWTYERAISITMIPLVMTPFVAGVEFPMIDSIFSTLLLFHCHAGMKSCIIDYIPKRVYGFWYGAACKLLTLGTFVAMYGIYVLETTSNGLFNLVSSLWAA
Chain of respiratory chain complex II (Saccharomyces cerevisiae, UniProt P21801+P33421+P37298+Q00711) (P21801 21-266): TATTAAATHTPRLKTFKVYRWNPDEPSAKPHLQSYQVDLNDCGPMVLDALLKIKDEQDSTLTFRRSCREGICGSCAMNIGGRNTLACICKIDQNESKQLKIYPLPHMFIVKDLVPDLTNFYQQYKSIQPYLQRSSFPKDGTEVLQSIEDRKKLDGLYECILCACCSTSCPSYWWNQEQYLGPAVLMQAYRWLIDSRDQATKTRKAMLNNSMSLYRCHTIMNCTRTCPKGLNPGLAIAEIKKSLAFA
Chain of respiratory chain complex II (Saccharomyces cerevisiae, UniProt P21801+P33421+P37298+Q00711) (P33421 51-198): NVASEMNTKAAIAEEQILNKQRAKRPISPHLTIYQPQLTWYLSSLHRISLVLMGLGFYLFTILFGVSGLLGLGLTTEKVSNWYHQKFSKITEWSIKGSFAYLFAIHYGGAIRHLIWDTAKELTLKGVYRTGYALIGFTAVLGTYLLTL
Chain of respiratory chain complex II (Saccharomyces cerevisiae, UniProt P21801+P33421+P37298+Q00711) (P37298 32-181): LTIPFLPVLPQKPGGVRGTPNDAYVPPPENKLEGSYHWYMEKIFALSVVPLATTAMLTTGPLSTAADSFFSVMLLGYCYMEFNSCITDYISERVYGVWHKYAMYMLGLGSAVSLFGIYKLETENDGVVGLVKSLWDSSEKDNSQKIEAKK
Chain of respiratory chain complex II (Saccharomyces cerevisiae, UniProt P21801+P33421+P37298+Q00711) (Q00711 29-640): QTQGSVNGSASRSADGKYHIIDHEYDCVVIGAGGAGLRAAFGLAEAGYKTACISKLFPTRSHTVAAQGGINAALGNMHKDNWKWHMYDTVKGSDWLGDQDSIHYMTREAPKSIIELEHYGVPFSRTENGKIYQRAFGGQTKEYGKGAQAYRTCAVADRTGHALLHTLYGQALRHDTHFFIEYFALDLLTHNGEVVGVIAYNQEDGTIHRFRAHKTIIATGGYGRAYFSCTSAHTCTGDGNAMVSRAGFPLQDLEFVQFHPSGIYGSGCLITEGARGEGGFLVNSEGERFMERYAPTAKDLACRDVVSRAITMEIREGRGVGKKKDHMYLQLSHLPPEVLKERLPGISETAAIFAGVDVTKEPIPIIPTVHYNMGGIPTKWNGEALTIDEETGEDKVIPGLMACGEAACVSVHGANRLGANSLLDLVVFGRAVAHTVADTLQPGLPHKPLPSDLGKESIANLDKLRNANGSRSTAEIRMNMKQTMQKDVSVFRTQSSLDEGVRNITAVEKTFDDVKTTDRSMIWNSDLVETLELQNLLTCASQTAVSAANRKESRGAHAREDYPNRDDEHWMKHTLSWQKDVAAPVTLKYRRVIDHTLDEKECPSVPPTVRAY

Compound: O=C(O)CC(=O)O [Malonic acid]
inhibition at 10000 µM [1]: 97% | inhibition at 10000 µM [2]: 98% | inhibition at 10000 µM [3]: 100% | inhibition at 10000 µM [4]: 100%

Compound: C/C=C/[C@@H]1[C@H]2C[C@@H](C)CC[C@@H]2C(C)=C[C@H]1C(=O)c1c(O)c(-c2ccc(O)cc2)c[nH]c1=O [ilicicolin H]
selectivity between yeast and bovine complex III (complex III): > 70 fold

inhibition at 1000 µM [5]: 86%
Compound: O=C(CC(=O)C(F)(F)F)c1cccs1 [TTFA, 2-thenoyltrifluoroacetone, reference compound]

Compound: N#CC(C#N)=NNc1cccc(Cl)c1 [CCCP, carbonyl cyanide m-chlorophenylhydrazone]
effect on oxygen consumption in whole yeast cells (whole yeast cells): stimulated oxygen consumption

Compound: Oligomycin A
effect on mitochondrial oxygen consumption rate (OCR) ([6]; ADP-stimulated condition (succinate + ADP)): significantly inhibited | effect on mitochondrial oxygen consumption rate (OCR) ([6]; basal condition (succinate, absence of ADP)): did not decrease the OCR

Compound: C=C(C)[C@H]1Cc2c(ccc3c2O[C@@H]2COc4cc(OC)c(OC)cc4[C@@H]2C3=O)O1 [Rotenone, rotenone, reference compound]
inhibition at 2 µM [7]: 68% | Inhibition (%) of positive control, NADH dehydrogenase (including Complex I) (NADH dehydrogenase): 59%

Compound: CCCCCC[C@H]1C(=O)O[C@H](C)[C@H](NC(=O)c2cccc(NC=O)c2O)C(=O)O[C@@H](C)[C@@H]1OC(=O)CC(C)C [Antimycin A]
effect on oxygen consumption in whole yeast cells (whole yeast cells): completely and immediately inhibited respiration | inhibition at 10 µg/mL [1]: 97% | inhibition at 10 µg/mL [2]: 98% | inhibition at 5 µg/mL [5]: 92% | effect on intracellular ATP level (Saccharomyces cerevisiae): significantly decreased

— publication PMC6658782, “The Novel Arylamidine T-2307 Selectively Disrupts Yeast Mitochondrial Function by Inhibiting Respiratory Chain Complexes” (Antimicrobial Agents and Chemotherapy, 2019)
